According to ChEMBL document CHEMBL4033700, “From a novel HTS hit to potent, selective, and orally bioavailable KDM5 inhibitors” (Bioorg Med Chem Lett, 2017):

Tests used:
[1] = Ratio of unbound Cmax in CD-1 mouse to EC50 for KDM5A in human PC9 cells
[2] = Protein binding in rat plasma; type: ADME, cell-free; conditions: read-out: PPB (converted)
[3] = biological target: T1, Lysine-specific demethylase 2B (Homo sapiens, UniProt Q8NHM5); test: Inhibition of recombinant human N-terminal FLAG-tagged KDM2B expressed in baculovirus infected Sf9 insect cells using H3K36me2 peptide as substrate after 30 to 45 mins by TR-FRET assay
T1 sequence (Q8NHM5 whole entry): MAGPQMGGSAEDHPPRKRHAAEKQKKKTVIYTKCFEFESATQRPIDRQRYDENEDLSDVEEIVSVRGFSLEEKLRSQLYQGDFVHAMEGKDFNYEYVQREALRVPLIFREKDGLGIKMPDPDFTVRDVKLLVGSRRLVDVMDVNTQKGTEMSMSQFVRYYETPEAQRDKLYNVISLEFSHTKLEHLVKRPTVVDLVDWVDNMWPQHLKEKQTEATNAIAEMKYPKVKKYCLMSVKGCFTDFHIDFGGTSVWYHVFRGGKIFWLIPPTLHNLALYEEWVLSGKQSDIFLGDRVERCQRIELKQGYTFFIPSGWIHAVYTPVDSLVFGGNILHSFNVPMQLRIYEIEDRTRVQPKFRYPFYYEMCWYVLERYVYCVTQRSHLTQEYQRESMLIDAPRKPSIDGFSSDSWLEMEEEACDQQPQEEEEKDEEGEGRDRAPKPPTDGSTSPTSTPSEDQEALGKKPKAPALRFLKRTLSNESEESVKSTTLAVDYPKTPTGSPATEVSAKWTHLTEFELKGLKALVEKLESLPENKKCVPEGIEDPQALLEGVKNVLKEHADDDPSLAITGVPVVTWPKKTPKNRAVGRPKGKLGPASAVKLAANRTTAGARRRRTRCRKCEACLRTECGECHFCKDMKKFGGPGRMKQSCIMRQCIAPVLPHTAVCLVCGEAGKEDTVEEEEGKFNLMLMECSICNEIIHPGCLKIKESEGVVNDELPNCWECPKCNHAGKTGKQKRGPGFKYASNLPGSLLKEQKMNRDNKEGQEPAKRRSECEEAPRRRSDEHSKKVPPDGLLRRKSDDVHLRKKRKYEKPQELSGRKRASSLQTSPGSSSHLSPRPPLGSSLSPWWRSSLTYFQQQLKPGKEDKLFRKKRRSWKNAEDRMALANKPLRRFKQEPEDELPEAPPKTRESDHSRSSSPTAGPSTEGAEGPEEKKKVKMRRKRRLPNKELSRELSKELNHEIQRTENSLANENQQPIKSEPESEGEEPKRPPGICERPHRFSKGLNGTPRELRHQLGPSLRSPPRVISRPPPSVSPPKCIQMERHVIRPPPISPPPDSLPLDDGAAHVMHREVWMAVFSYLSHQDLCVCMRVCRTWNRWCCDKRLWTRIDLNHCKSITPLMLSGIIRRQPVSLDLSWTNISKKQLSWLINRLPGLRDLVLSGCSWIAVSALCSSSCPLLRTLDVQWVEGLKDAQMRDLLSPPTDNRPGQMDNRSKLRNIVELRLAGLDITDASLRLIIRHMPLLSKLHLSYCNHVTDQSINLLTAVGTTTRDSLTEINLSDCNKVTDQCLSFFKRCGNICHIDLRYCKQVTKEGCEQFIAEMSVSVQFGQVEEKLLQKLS

[4] = Hepatic clearance in human liver microsomes; type: ADME, microsome
[5] = Protein binding in human plasma; type: ADME, cell-free; conditions: read-out: PPB (converted)
[6] = Volume of distribution in CD-1 mouse plasma at 1 mg/kg, iv or 5 mg/kg, po; type: ADME, organism-based
[7] = Hepatic clearance in human hepatocytes; type: ADME, cell-based, Hepatocyte
[8] = Clearance in CD-1 mouse plasma at 1 mg/kg, iv or 5 mg/kg, po; type: ADME, organism-based

fraction unbound [2]: 0.624
IC50 [3]: > 25 µM
CLhep predicted [4]: 4.2 mL/min/kg
fraction unbound [5]: 0.56
Vd [6]: 0.7 L/kg
CLhep predicted [7]: 1.2 mL/min/kg
clearance [8]: 28 mL/min/kg
Structure (SMILES): CC(C)c1cc(C(=O)N2CC[C@@H](NC(=O)C3CC3)C2)[nH]n1
Ratio [1]: 2
